Biological target: T1, Sentrin-specific protease 1 (Homo sapiens, UniProt Q9P0U3)
T1 sequence (Q9P0U3 whole entry): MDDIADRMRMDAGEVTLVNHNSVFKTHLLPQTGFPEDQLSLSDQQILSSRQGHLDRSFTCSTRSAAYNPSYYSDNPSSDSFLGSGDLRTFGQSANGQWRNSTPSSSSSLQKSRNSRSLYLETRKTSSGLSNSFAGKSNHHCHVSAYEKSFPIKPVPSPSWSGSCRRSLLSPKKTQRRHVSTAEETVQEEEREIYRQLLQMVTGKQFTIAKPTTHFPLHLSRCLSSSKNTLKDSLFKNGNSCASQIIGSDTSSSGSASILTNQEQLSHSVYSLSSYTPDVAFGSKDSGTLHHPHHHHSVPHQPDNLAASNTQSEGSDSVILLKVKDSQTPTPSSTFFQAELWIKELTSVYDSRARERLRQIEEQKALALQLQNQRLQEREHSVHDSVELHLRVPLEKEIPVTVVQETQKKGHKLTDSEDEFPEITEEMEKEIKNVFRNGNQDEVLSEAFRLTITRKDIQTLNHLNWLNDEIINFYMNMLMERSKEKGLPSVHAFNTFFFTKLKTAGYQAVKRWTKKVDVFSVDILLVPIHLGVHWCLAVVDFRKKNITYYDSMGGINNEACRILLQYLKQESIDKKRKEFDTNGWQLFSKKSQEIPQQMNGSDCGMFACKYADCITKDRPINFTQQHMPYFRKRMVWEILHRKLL
Experiment: Inhibition of SENP1 catalytic domain (419 to 644 residues) (unknown origin) expressed in Escherichia coli BL21 (DE3) assessed as reduction in deSUMOylation preincubated for 10 mins followed by addition of RanGAP-SUMO as substrate measured after 25 mins by coomassie staining-based SDS-PAGE analysis

O=C(N/N=C/C1CCCCC1)c1cc(Cl)ccc1O
IC50: 14 µM

Source: ChEMBL document CHEMBL3864126, “Identification of SENP1 inhibitors through in silico screening and rational drug design” (Eur J Med Chem, 2016)
